From patent US9877999B2, “Methods for treating metastatic stage prostate cancer” (Ferring International SA, priority 2008, dated 2018)
Where two headings read alike, the source gives them in different places. Square brackets hold non-standard residues; d marks the D form. Peptide text beside a SMILES is read from it. * marks the point of attachment. dPhe(4-NHCONH2) = NC(=O)Nc1ccc(C[C@@H](N)C(=O)O)cc1; Dihydroorotyl(S) = O=C1C[C@@H](C(=O)*)NC(=O)N1; dPhe(4-Cl) = N[C@H](Cc1ccc(Cl)cc1)C(=O)O; Phe(4-NH2) = Nc1ccc(C[C@H](N)C(=O)O)cc1; d2Nal = N[C@H](Cc1ccc2ccccc2c1)C(=O)O; Lys(iPr) = CC(C)NCCCC[C@H](N)C(=O)O; d3Pal = N[C@H](Cc1cccnc1)C(=O)O

Columns and labels:
[1] = test system: serum alkaline phosphatase (S-ALP); test: S-ALP analysis in prostate cancer patients (clinical study CS21); format: in vivo, human; conditions: Degarelix 240/80 mg
Experimental: Patients with histologically confirmed adenocarcinoma of the prostate (all stages), for whom androgen deprivation therapy was indicated were recruited. Baseline characteristics were well balanced between groups. Approximately half of patients had locally advanced (29.2%) or metastatic (20.5%) disease at baseline. […] Patients receiving leuprolide could also receive bicalutamide for clinical flare protection. The S-ALP levels were measured in each patient at various time points, by taking a blood sample and analyzing for S-ALP. S-ALP levels were measured using a standardized colorimetric assay based on the p-nitrophenyl phosphate AMP buffer method. The normal range for S-ALP is 44-147 IU/L. The S-ALP values in non-metastatic patients serve as controls. An ANOVA analysis with treatment and day as factors and baseline value as covariate was used to determine between treatment differences at Day 364. A repeated measures analysis (incorporating all time points from Day 112) with treatment and day as factors and baseline value as covariate was used to assess between treatment differences from Day 112 to Day 364.

testosterone = format: in vivo, human; conditions: for overall proportion of patients with testosterone ≦0.5 ng/mL from day 28 to day 364: observed cases analysis
Experimental: The study also evaluated the pharmacokinetics of the degarelix dosing regimens investigated. Finally, the study examined the effects of using the degarelix treatment on patients suffering from different stages of cancer. […] The primary efficacy endpoint was the probability of testosterone levels remaining ≦0.5 ng/mL from day 28 through day 364. […] The primary efficacy endpoint was analyzed for both the ITT and PP analysis sets, with the ITT analysis set considered primary. The primary efficacy endpoint was analyzed using the Kaplan Meier method. For each of the three treatment groups, testosterone response rates with 95% confidence interval (CI) were calculated by log-log transformation of survivor function. […] All secondary efficacy endpoints were analyzed for both the ITT and PP analysis sets, unless otherwise stated. […] The percentage change in PSA from baseline to day 28 endpoint was analyzed by a Wilcoxon test.

[2] = test system: follicle stimulating hormone (FSH); test: Serum FSH levels over time (clinical study CS21); format: in vivo, human; conditions: by day 7; degarelix
Experimental: The study also investigated whether degarelix is safe and effective with respect to achieving and maintaining testosterone suppression to castrate levels, evaluated as the proportion of patients with testosterone suppression ≦0.5 ng/mL during 12 months of treatment. […] The study also evaluated the pharmacokinetics of the degarelix dosing regimens investigated. Finally, the study examined the effects of using the degarelix treatment on patients suffering from different stages of cancer.
Patients in two treatment groups received a degarelix starting dose of 240 mg at a concentration of 40 mg/mL (240@40) on day 0 administered as two equivalent subcutaneous (s.c.) injections of 120 mg each. Thereafter, patients received 12 additional single s.c. degarelix doses of either 80 mg at a concentration of 20 mg/mL (80@20: degarelix 240/80 mg group) or 160 mg at a concentration of 40 mg/mL (160@40: degarelix 240/160 mg group) administered s.c. every 28 days.
The secondary efficacy endpoints were: the proportion of patients with testosterone surge during the first 2 weeks of treatment; the proportion of patients with testosterone level ≦0.5 ng/mL at day 3; the percentage change in PSA from baseline to day 28; the probability of testosterone ≦0.5 ng/mL from day 56 through day 364; the levels of serum testosterone, LH, FSH and PSA over time through the study; the time to PSA failure, defined as two consecutive increases of 50%, and at least 5 ng/mL as compared to nadir; degarelix concentration over the first month and trough levels at day 308 and 336; the frequency and size of testosterone increases at day 255 and/or 259 compared to the testosterone level at day 252; the quality of life on days 0, 28, 84, 168 and end of study visit; the frequency and intensity of hot flushes experienced (scored daily from study start until end of study visit). In addition, two further secondary endpoints were added: the probability of sufficient testosterone response from day 28 through day 364 (a patient was considered to have insufficient testosterone response if they had one testosterone value >1.0 ng/mL or two consecutive testosterone values >0.5 ng/mL at day 28 onwards); and the percentage change in PSA from baseline to day 14.

clinical [3] = test: clinical; parameters: species or system human; conditions: in vivo
From the text: Plasma protein binding is estimated to be approximately 90%.

[4] = human, in vivo, sc
[5] = human, in vivo
clinical [6] = conditions: male, human, in vivo, sc, 240 mg
in vitro = conditions: plasma

proportion of patients with testosterone surge (increase 15% from baseline) (testosterone; human, in vivo): 0.2% | fraction excreted via the hepato-biliary system (clinical [3]): approximately 80% | Vd (clinical [3]; male, human): ~1 L/kg | clearance (clinical [3]; male, human): 0.583 to 0.833 mL/min/kg | dose excreted (clinical [3]; male, human): ~20% | significant metabolites in plasma samples [4]: No significant metabolites were detected | AUC ([4]; 240 mg): 1240 ng·days/mL | Cmax (clinical [6]): 53.4 ng/mL | Tmax (clinical [6]): 1.4 days | half-life (clinical [6]; T½): 43 days | half-life (clinical [6]; median terminal half-life): ~43 days | fraction unbound (in vitro): ~0.1
SMILES: CC(=O)N[C@H](Cc1ccc2ccccc2c1)C(=O)N[C@H](Cc1ccc(Cl)cc1)C(=O)N[C@H](Cc1cccnc1)C(=O)N[C@@H](CO)C(=O)N[C@@H](Cc1ccc(NC(=O)[C@@H]2CC(=O)NC(=O)N2)cc1)C(=O)N[C@H](Cc1ccc(NC(N)=O)cc1)C(=O)N[C@@H](CC(C)C)C(=O)N[C@@H](CCCCNC(C)C)C(=O)N1CCC[C@H]1C(=O)N[C@H](C)C(N)=O [degarelix, D-Alaninamide, N-acetyl-3-(2-naphthalenyl)-D-alanyl-4-chloro-D-phenylalanyl-3-(3-pyridinyl)-D-alanyl-L-seryl-4-[[[(4S)-hexahydro-2,6-dioxo-4-pyrimidinyl]carbonyl]amino]-L phenylalanyl-4-[(aminocarbonyl)amino]-D-phenylalanyl-L leucyl-N6-(1-methylethyl)-L-lysyl-L-prolyl] (Ac-[d2Nal][dPhe(4-Cl)][d3Pal]S[Phe(4-NH2)](Dihydroorotyl(S))[dPhe(4-NHCONH2)]L[Lys(iPr)]P[dA]-NH2)
S-ALP mean change from baseline ([1]; Localized, Day 112): +5 IU/L | S-ALP mean change from baseline ([1]; Localized, Day 224): +8 IU/L | S-ALP mean change from baseline ([1]; Localized, Day 364): +10 IU/L | S-ALP mean change from baseline ([1]; Locally advanced, Day 112): +6 IU/L | S-ALP mean change from baseline ([1]; Locally advanced, Day 224): +7 IU/L | S-ALP mean change from baseline ([1]; Locally advanced, Day 364): +10 IU/L | S-ALP mean change from baseline ([1]; Metastatic (Hb < 130 g/L), Day 112): −160 IU/L | S-ALP mean change from baseline ([1]; Metastatic (Hb < 130 g/L), Day 224): −200 IU/L | S-ALP mean change from baseline ([1]; Metastatic (Hb < 130 g/L), Day 364): −230 IU/L | S-ALP mean change from baseline ([1]; Metastatic, Day 112): −90 IU/L | S-ALP mean change from baseline ([1]; Metastatic, Day 224): −100 IU/L | S-ALP mean change from baseline ([1]; Metastatic, Day 364): −90 IU/L | S-ALP mean change from baseline ([1]; baseline PSA 10-20 ng/mL, Day 112): +5 IU/L | S-ALP mean change from baseline ([1]; baseline PSA 10-20 ng/mL, Day 224): +8 IU/L | S-ALP mean change from baseline ([1]; baseline PSA 10-20 ng/mL, Day 364): +13 IU/L | S-ALP mean change from baseline ([1]; baseline PSA 20-50 ng/mL, Day 112): +5 IU/L | S-ALP mean change from baseline ([1]; baseline PSA 20-50 ng/mL, Day 224): +7.5 IU/L | S-ALP mean change from baseline ([1]; baseline PSA 20-50 ng/mL, Day 364): +4.5 IU/L | S-ALP mean change from baseline ([1]; baseline PSA < 10 ng/mL, Day 112): +4.5 IU/L | S-ALP mean change from baseline ([1]; baseline PSA < 10 ng/mL, Day 224): +5.5 IU/L | S-ALP mean change from baseline ([1]; baseline PSA < 10 ng/mL, Day 364): +7 IU/L | S-ALP mean change from baseline ([1]; baseline PSA > 50 ng/mL, Day 112): −60 IU/L | S-ALP mean change from baseline ([1]; baseline PSA > 50 ng/mL, Day 224): −70 IU/L | S-ALP mean change from baseline ([1]; baseline PSA > 50 ng/mL, Day 364): −60 IU/L | median testosterone level (testosterone; 240 mg then monthly 80 mg, after one year): 0.087 ng/mL | patients with sustained testosterone suppression (testosterone; 240 mg then monthly 80 mg, at least one year): 97% | Kaplan-Meier estimate of the probability of testosterone ≦0.5 ng/mL from day 28 to day 364 (testosterone; degarelix 240/80 mg group): 97.2% | Kaplan-Meier estimate of the probability of testosterone ≦0.5 ng/mL from day 28 to day 364 (testosterone; degarelix 240/160 mg group): 98.3% | overall proportion of patients with testosterone ≦0.5 ng/mL from day 28 to day 364 (testosterone; degarelix 240/80 mg group): 97.0% | overall proportion of patients with testosterone ≦0.5 ng/mL from day 28 to day 364 (testosterone; degarelix 240/160 mg group): 98.2% | patients exhibiting testosterone suppression on day 3 (testosterone; patients receiving degarelix): 96% | decrease of median FSH from baseline [2]: > 80% | median FSH level [2]: ≤ 1.5 IU/L | tolerability [5]: generally well tolerated
